≈ marks a conversion by molar mass, not a printed value. *1 amine or outer side, *2 acyl side, *3 side chain or, on linkers, in order; H or OH if unused. Where a SMILES comes first, the peptide text is derived from it. [ ]: non-standard residue; d: D form. The star is where a group is joined. X13 = C[C@H](CO[C@H](CC1CC2(CCC2)C1)[C@@H](C)C(=O)[*:2])N[*:1]; X18 = CCCCCC[C@@H](OCCN[*:1])[C@@H](Cc1ccc(C)cc1)C(=O)[*:2]; X2 = CCCCCC[C@@H](OC[C@@H](C)N[*:1])[C@@H](C)C(=O)[*:2]; X23 = CCCCCCCCCC[C@@H](OCCN[*:1])[C@@H](C)C(=O)[*:2]; X21 = C[C@H](CO[C@@H]1CCCCCC[C@H]1C(=O)[*:2])N[*:1]; Cyclobutyl(trans-3-NH2) = N[C@H]1C[C@H](*)C1; Gly(cHept) = N[C@H](C(=O)O)C1CCCCCC1; aIle = CC[C@@H](C)[C@H](N)C(=O)O; aThr = C[C@H](O)[C@H](N)C(=O)O; NMeL = CN[C@@H](CC(C)C)C(=O)O; Chg = N[C@H](C(=O)O)C1CCCCC1; NMeNva = CCC[C@H](NC)C(=O)O; Dap = NC[C@H](N)C(=O)O; X15 = OC[C@@H](O)C*; X20 = C1NCC1C*
Test system: Escherichia coli (E. coli) strain CFT073 ATCC 700928
Type: cell-based
Conditions: ATCC 700928, 22 h
How it was run: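 Broth microdilution MIC per CLSI M07-A8 in cation-adjusted Mueller Hinton II broth with 0.002% Tween-80. Ten-point 2-fold series topped at 64, 4, 0.5 or 0.13 μg/mL depending on protocol. Final inoculum OD600 0.0005, incubated 22 h at 35 °C.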

Going from `CCC[C@H]1C(=O)N[C@@H](C2CCCCCC2)C(=O)N[C@@H](CN)C(=O)N[C@@H](COCC2CNC2)C(=O)N[C@H](C)CO[C@H](CC2CC3(CCC3)C2)[C@@H](C)C(=O)N1C` [Example 171, (3R,6S,9S,12S,15S,18R,19R)-9-(Aminomethyl)-6-((azetidin-3-ylmethoxy)methyl)-12-cycloheptyl-3,16,18-trimethyl-15-propyl-19-(spiro[3.3]heptan-2-ylmethyl)-1-oxa-4,7,10,13,16-pentaazacyclononadecane-5,8,11,14,17-pentaone] (cyclo([Dap]S(X20)[X13][NMeNva][Gly(cHept)])) to `CCC[C@H]1C(=O)N[C@@H](C2CCCCCC2)C(=O)N[C@@H](CN)C(=O)N[C@@H](COC2CC3(CC(N)C3)C2)C(=O)N[C@H](C)CO[C@H](CC2CC3(CCC3)C2)[C@@H](C)C(=O)N1C` (single isomer, unassigned; stereoisomer 1) [Example 166], the MIC falls from 6.3 µM (≈ 4.79 µg/mL) to 1.1 µM (≈ 0.88 µg/mL) (5.7-fold).

First: CCCCCC[C@H]1OC(=O)CNC(=O)[C@H]([C@H](C)O)NC(=O)[C@H](CN)NC(=O)[C@H](C2CCCCC2)NC(=O)[C@H](CC(C)C)N(C)C(=O)[C@@H]1CCc1ccc(C)cc1 [Example 97, (6S,9S,12S,15S,18R,19R)-9-(aminomethyl)-12-cyclohexyl-19-hexyl-15-isobutyl-16-methyl-18-[2-(p-tolyl)ethyl]-6-[(1S)-1-hydroxyethyl]-1-oxa-4,7,10,13,16-pentazacyclononadecane-2,5,8,11,14,17-hexone]
Second: CC(C)CCCCCC[C@H]1OC(=O)CNC(=O)[C@H]([C@H](C)O)NC(=O)[C@H](CN)NC(=O)[C@H](C2CCCCC2)NC(=O)[C@H](CC(C)C)N(C)C(=O)[C@@H]1C [Example 65, (6S,9S,12S,15S,18R,19R)-9-(Aminomethyl)-12-cyclohexyl-6-((S)-1-hydroxyethyl)-15-isobutyl-16,18-dimethyl-19-(7-methyloctyl)-1-oxa-4,7,10,13,16-pentaazacyclononadecane-2,5,8,11,14,17-hexaone]
The MIC of the first is 4.7-fold higher: 3.7 µM (≈ 2.9 µg/mL) for the first, 0.78 µM (≈ 0.564 µg/mL) for the second.

`CCCCCC[C@H]1OC[C@@H](C)NC(=O)[C@H](COC[C@H](O)CO)NC(=O)[C@H](CN)NC(=O)[C@H](C2CCCCC2)NC(=O)[C@H](CC(C)C)N(C)C(=O)[C@@H]1C` [Example 136, (3R,6S,9S,12S,15S,18R,19R)-9-(aminomethyl)-12-cyclohexyl-19-hexyl-15-isobutyl-3,16,18-trimethyl-6-[[(2R)-2,3-dihydroxypropoxy]methyl]-1-oxa-4,7,10,13,16-pentazacyclononadecane-5,8,11,14,17-pentone] (cyclo([Chg][Dap]S(X15)[X2][NMeL])) and `CCCCCC[C@H]1OC[C@@H](C)NC(=O)[C@H](CO[C@H]2C[C@H](N)C2)NC(=O)[C@H](CN)NC(=O)[C@H](C2CCCCCC2)NC(=O)[C@H](CCC)N(C)C(=O)[C@@H]1C` [Example 146, (3R,6S,9S,12S,15S,18R,19R)-6-[(3-aminocyclobutoxy)methyl]-9-(aminomethyl)-12-cycloheptyl-19-hexyl-3,16,18-trimethyl-15-propyl-1-oxa-4,7,10,13,16-pentazacyclononadecane-5,8,11,14,17-pentone] (cyclo([Dap]S(Cyclobutyl(trans-3-NH2))[X2][NMeNva][Gly(cHept)])) are within 1.5-fold of each other in MIC: 8.8 µM (≈ 6.52 µg/mL) for the first, 6.3 µM (≈ 4.64 µg/mL) for the second.

First: CCCCCC[C@H]1OC(=O)CNC(=O)[C@H]([C@H](C)O)NC(=O)[C@H]([C@H](C)N)NC(=O)[C@H](C2CCCCC2)NC(=O)[C@H](CC(C)C)N(C)C(=O)[C@@H]1C [Example 125, (6S,9S,12S,15S,18R,19R)-12-cyclohexyl-19-hexyl-15-isobutyl-16,18-dimethyl-9-[(1S)-1-aminoethyl]-6-[(1S)-1-hydroxyetltyl]-1-oxa-4,7,10,13,16-pentazacyclononadecane-2,5,8,11,14,17-hexone]
Second: CCCCCC[C@H]1OC(=O)CNC(=O)[C@H]([C@H](C)O)NC(=O)[C@H](CN)NC(=O)[C@H](C2CCCCC2)NC(=O)[C@H](CC)N(C)C(=O)[C@@H]1C [Example 111, (6S,9S,12S,15S,18R,19R)-9-(aminomethyl)-12-cyclohexyl-15-ethyl-19-hexyl-16,18-dimethyl-6-[(1S)-1-hydroxyethyl]-1-oxa-4,7,10,13,16-pentazacyclononadecane-2,5,8,11,14,17-hexone]
The MIC of the first is 2.8-fold lower: 3.2 µM (≈ 2.22 µg/mL) for the first, 8.8 µM (≈ 5.74 µg/mL) for the second.

Going from `CCC[C@H]1C(=O)N[C@@H](C2CCCCC2)C(=O)N[C@@H](CN)C(=O)N[C@@H]([C@H](C)O)C(=O)N[C@H](C)CO[C@@H]2CCCCCC[C@H]2C(=O)N1C` [Example 86, (3R,6S,9S,12S,15S,17aR,23aR)-9-(Aminomethyl)-12-cyclohexyl-6-((S)-1-hydroxyethyl)-3,16-dimethyl-15-propyloctadecahydrocycloocta[r][1]oxa[4,7,10,13,16]pentaazacyclononadecine-5,8,11,14,17(2H)-pentaone] (cyclo([Chg][Dap][aThr][X21][NMeNva])) to `CCCCCC[C@H]1OC[C@@H](C)NC(=O)[C@H]([C@H](C)O)NC(=O)[C@H](CN)NC(=O)[C@H](C2CCN(c3ccccc3)CC2)NC(=O)[C@H](CC(C)C)N(C)C(=O)[C@@H]1C` [Example 148, (3R,6S,9S,12S,15S,18R,19R)-9-(Aminomethyl)-19-hexyl-6-((S)-1-hydroxyethyl)-15-isobutyl-3,16,18-trimethyl-12-(1-phenylpiperidin-4-yl)-1-oxa-4,7,10,13,16-pentaazacyclononadecane-5,8,11,14,17-pentaone], the MIC falls from 50 µM (≈ 32.5 µg/mL) to 8.8 µM (≈ 6.67 µg/mL) (5.7-fold).

First: CCCCCC[C@H]1OCCNC(=O)[C@H](CO)NC(=O)[C@H](CN)NC(=O)[C@H]([C@H](C)CC)NC(=O)[C@H](CC(C)C)N(C)C(=O)[C@@H]1Cc1ccc(C)cc1 [Example 110, (6S,9S,12S,15S,18R,19R)-9-(aminomethyl)-19-hexyl-6-(hydroxymethyl)-15-isobutyl-16-methyl-18-(p-tolylmethyl)-12-[(1R)-1-methylpropyl]-1-oxa-4,7,10,13,16-pentazacyclononadecane-5,8,11,14,17-pentone] (cyclo([Dap]S[X18][NMeL][aIle]))
Second: CCCCCCCCCC[C@H]1OCCNC(=O)[C@H]([C@H](C)O)NC(=O)[C@H](CN)NC(=O)[C@H]([C@H](C)CC)NC(=O)[C@H](CC(C)C)N(C)C(=O)[C@@H]1C [Example 47, (6S,9S,12S,15S,18R,19R)-9-(aminomethyl)-19-decyl-6-[(1S)-1-hydroxyethyl]-15-isobutyl-16,18-dimethyl-12-[(1R)-1-methylpropyl]-1-oxa-4,7,10,13,16-pentazacyclononadecane-5,8,11,14,17-pentone] (cyclo([Dap][aThr][X23][NMeL][aIle]))
The MIC of the first is 8.1-fold higher: 25 µM (≈ 17.9 µg/mL) for the first, 3.1 µM (≈ 2.16 µg/mL) for the second.

First: CCCCCCCCCC[C@H]1OC(=O)CNC(=O)[C@H](CCN)NC(=O)[C@H](CO)NC(=O)[C@H]([C@@H](C)CC)NC(=O)[C@H](CC(C)C)N(C)C(=O)[C@@H]1C [Example 20, (6S,9S,12S,15S,18R,19R)-6-(2-aminoethyl)-19-decyl-9-(hydroxymethyl)-15-isobutyl-16,18-dimethyl-12-[(1S)-1-methylpropyl]-1-oxa-4,7,10,13,16-pentazacyclononadecane-2,5,8,11,14,17-hexone]
Second: CCCCCCCCCC[C@H]1OC(=O)CNC(=O)[C@H](CN)NC(=O)[C@H](CO)NC(=O)[C@H]([C@@H](C)CC)NC(=O)[C@H](CC(C)C)N(C)C(=O)[C@@H]1C [Example 19, (6S,9S,12S,15S,18R,19R)-6-(aminomethyl)-19-decyl-9-(hydroxymethyl)-15-isobutyl-16,18-dimethyl-12-[(1S)-1-methylpropyl]-1-oxa-4,7,10,13,16-pentazacyclononadecane-2,5,8,11,14,17-hexone]
The MIC of the first is 2-fold higher: 50 µM (≈ 35.5 µg/mL) for the first, 25 µM (≈ 17.4 µg/mL) for the second.

Going from `CCCC(CCC)C[C@H]1OC(=O)CNC(=O)[C@H]([C@H](C)O)NC(=O)[C@H](CO)NC(=O)[C@H]([C@H](C)CC)NC(=O)[C@H](CC(C)C)N(C)C(=O)[C@@H]1C` [Example 42, (6S,9S,12S,15S,18R,19R)-6-[(1S)-1-hydroxyethyl]-9-(hydroxymethyl)-15-isobutyl-16,18-dimethyl-12-[(1R)-1-methylpropyl]-19-(2-propylpentyl)-1-oxa-4,7,10,13,16-pentazacyclononadecane-2,5,8,11,14,17-hexone] to `CC[C@@H](C)[C@@H]1NC(=O)[C@H](CC(C)C)N(C)C(=O)[C@H](C)[C@@H](CCCCCC(F)(F)F)OC(=O)CNC(=O)[C@H]([C@H](C)O)NC(=O)[C@H](CN)NC1=O` [Example 107, (6S,9S,12S,15S,18R,19R)-9-(aminomethyl)-15-isobutyl-16,18-dimethyl-6-[(1S)-1-hydroxyethyl]-12-[(1R)-1-methylpropyl]-19-(6,6,6-trifluorohexyl)-1-oxa-4,7,10,13,16-pentazacyclononadecane-2,5,8,11,14,17-hexone], the MIC falls from 50 µM (≈ 34.2 µg/mL) to 25 µM (≈ 17.7 µg/mL) (2-fold).

`CCCCCCCCCC[C@H]1OC(=O)CNC(=O)[C@H](COCCCN)NC(=O)[C@H](CO)NC(=O)[C@H]([C@@H](C)CC)NC(=O)[C@H](CC(C)C)N(C)C(=O)[C@@H]1C` [Example 95, (6S,9S,12S,15S,18R,19R)-6-(3-aminopropoxymethyl)-19-decyl-9-(hydroxymethyl)-15-isobutyl-16,18-dimethyl-12-[(1S)-1-methylpropyl]-1-oxa-4,7,10,13,16-pentazacyclononadecane-2,5,8,11,14,17-hexone] and `CCCCCCCCCC[C@H]1OC(=O)CNC(=O)[C@H](CO)NC(=O)[C@H](CO)NC(=O)[C@H]([C@@H](C)CC)NC(=O)[C@H](CCCC)N(C)C(=O)[C@@H]1C` [Example 31, (6S,9S,12S,15S,18R,19R)-15-butyl-19-decyl-6,9-bis(hydroxymethyl)-16,18-dimethyl-12-[(1S)-1-methylpropyl]-1-oxa-4,7,10,13,16-pentazacyclononadecane-2,5,8,11,14,17-hexone] are within 1.5-fold of each other in MIC: 14 µM (≈ 10.6 µg/mL) for the first, 13 µM (≈ 9.07 µg/mL) for the second.

In the case of `CCCCCC[C@H]1OC(=O)CNC(=O)[C@H](CO[C@H]2C[C@H](N)C2)NC(=O)[C@H](CN)NC(=O)[C@H](C2CCCCC2)NC(=O)[C@H](CC(C)C)N(C)C(=O)[C@@H]1C` [Example 58, (6S,9S,12S,15S,18R,19R)-6-(((1r,3S)-3-Aminocyclobutoxy)methyl)-9-(aminomethyl)-12-cyclohexyl-19-hexyl-15-isobutyl-16,18-dimethyl-1-oxa-4,7,10,13,16-pentaazacyclononadecane-2,5,8,11,14,17-hexaone], the MIC is reported as 6.3 µM (≈ 4.64 µg/mL).

Reference: US11279735B2, “Cyclic peptide antibiotics” (priority 2017, dated 2022)
